Assay results: patent publication US5021415A, “Triazine carboxylic acids and esters” (Bristol-Myers Squibb Co., priority 1990, dated 1991)
≈ marks a conversion by molar mass, not a printed value. Like-named read-outs stand apart in the source and are kept apart here.

Test system: ADP-induced aggregation of human platelets
Assay type: cell-based
Details: 0.5 mcg/mL final, human platelet rich plasma
[1] = vs. ADP, Table 1, read-out: Inhibition of Human Platelet Aggregation of Formula I Compounds (IC50) vs. ADP
[2] = vs ADP, Table 2, read-out: Inhibition of Human Platelet Aggregation of Formula II Compounds (IC50) Vs ADP

Protocol: The aggregometer method of Born, C.V.R., J. Physiol., (London), 1962, 162, 67-68, as modified by Mustard, J.F., et al., J. Lab. […] The blood is immediately added to a test tube containing 3.8% sodium citrate to prevent clotting (1 part citrate to 9 parts blood).
Platelet rich plasma (PRP) was separated by centrifugation for 10 minutes at 1000 rpm (140xg) from citrated (3.8%) human blood. All glassware used for preparation of PRP is silicon treated. ADP in final concentration of 0.5 mcg/mL or 0.05 mL of a collagen suspension prepared according to the method described by Evans, G., et al., J. Exp. Med., 1968, 128, 877-894 was used to induce aggregation. The various compounds tested were dissolved in dimethylsulfoxide (DMSO) so that 5 mcl added to the platelet rich plasma would yield the desired test concentration. Vehicle control trials were done and compared with aggregation induced in platelet rich plasma containing various concentrations of the test compounds. Dose response curves were obtained and Inhibitor Concentration (IC50) values calculated.

COC(=O)CCCCCCCCn1nc(-c2ccccc2)c(-c2ccccc2)nc1=O [Example 1, Methyl 3-oxo-5,6-diphenyl-1,2,4-triazine-2(3H)-nonanoate] was tested, and the IC50 [1] was 6.8 µg/mL (≈ 16.2 µM).

With O=C(O)CCCCCCCCn1nc(-c2ccccc2)c(-c2ccccc2)nc1=O [Example 2, 3-Oxo-5,6-diphenyl-1,2,4-triazine-2(3H)-nonanoic acid] the IC50 [1] was 2.2 µg/mL (≈ 5.43 µM).

COC(=O)CCCCCCCn1nc(-c2ccccc2)c(-c2ccccc2)nc1=O [Example 3, Methyl 3-Oxo-5,6-diphenyl-1,2,4-triazine-2(3H)-octanoate] was tested, and the IC50 [1] was 4.6 µg/mL (≈ 11.3 µM).

O=C(O)CCCCCCCn1nc(-c2ccccc2)c(-c2ccccc2)nc1=O [Example 4, 3-Oxo-5,6-diphenyl-1,2,4-triazin-2(3H)-octanoic Acid] showed an IC50 [1] of 3.1 µg/mL (≈ 7.92 µM).

Work on COC(=O)COc1cccc(CCn2nc(-c3ccccc3)c(-c3ccccc3)nc2=O)c1 [Example 5, Methyl [3-[2-(2,3-dihydro-3-oxo-5,6-diphenyl-1,2,4-triazin-2-yl)ethyl]phenoxy]acetate] yielded an IC50 [2] of 1 µg/mL (≈ 2.27 µM).

Compound O=C(O)COc1cccc(CCn2nc(-c3ccccc3)c(-c3ccccc3)nc2=O)c1 [Example 6, [3-[2-(2,3-Dihydro-3-oxo-5,6-diphenyl 1,2,4-triazin-2-yl)ethyl]phenoxy]acetic Acid] has an IC50 [2] of 0.9 µg/mL (≈ 2.11 µM).
